{"source": "patent US12258423B2", "about": "“Stapled and stitched polypeptides and uses thereof” (President and Fellows of Harvard College, priority 2013, dated 2025)", "experiment": "Circular dichroism (CD) spectroscopy of peptide helicity", "conditions": "unlabeled peptide, 10 mM sodium phosphate pH 7.0, FIG. 11D", "method": "Circular Dichroism (CD) Spectroscopy: CD spectra (FIGS. 11A-11D) were obtained using unlabeled peptides in 10 mM sodium phosphate pH 7.0 buffer. The raw data has been converted to the concentration-independent unit of molar ellipticity. α-Helices typically show dual minima at approximately 208 nm and 222 nm and a maximum at approximately 192 nm."}
{"compound": "CC(=O)N[C@H](C(=O)N[C@@H](CO)C(=O)N[C@@H](Cc1ccccc1)C(=O)N[C@]12CCN(C1)C(=O)OCCCCOC(=O)N1CC[C@@](C(N)=O)(C1)NC(=O)[C@H](CC(C)C)NC(=O)[C@H](CC(C)C)NC(=O)[C@H](C)NC(=O)[C@H](Cc1[nH]cc3ccccc13)NC(=O)[C@H](Cc1ccc(O)cc1)NC(=O)[C@H](CCC(=O)O)NC2=O)C(C)O", "note": "(single isomer, unassigned) [Ac-PM2 PyrR/PyrS Alloc-Stapled]", "values": [{"measurement": "α-helical character (CD spectrum)", "value": "a-helical"}]}
